According to patent US4464389A, “Esters of retinoic acid and pentaerythritol and monobenzal acetals thereof” (SRI International, priority 1982, dated 1984):

Legend:
[1] = system: Hamster Tracheal Organ Culture (keratinization); experiment: Reversal of keratinization in hamster tracheal organ culture; format: cell-based
Description: (§1) The ODC assay measures a compound's effect on the prevention of the induction of ODC. The tracheal organ culture assay measures a compound's ability to reverse keratinization.
The tracheal organ culture assay is carried out as follows. Tracheas are taken from hamsters that are in very early stages of vitamin A deficiency and placed in organ culture. At the time of culture, the animals are still gaining weight; the tracheal epithelium is generally low columnar or cuboidal, with only occasional patches of squamous metaplasia. Each trachea is opened from the larynx to the carina along the membranous dorsal wall and cultured in a serum-free medium (CMRL-1066; with crystalline bovine insulin, 0.1 μg/ml; hydrocortisone hemisuccinate, 0.1 μg/ml; glutamine, 2 mM; penicillin, 100 units/ml; and streptomycin,100 μg/ml, added). Cultures are gassed with 50% oxygen, 45% nitrogen, and 5% CO2. The culture dishes are rocked at 35.5-36.0 degrees to allow the tracheas contact with both gas and medium. All tracheas are grown in medium containing no retinoid for the first 3 days. At the end of 3 days, some tracheas are harvested; almost all of these tracheas have significant squamous metaplasia, and approximately 60% have keratinized lesions. The remaining tracheas are then divided into different groups which are treated with either: (1) retinoid dissolved in dimethylsulfoxide (final concentration of DMSO in culture medium is never greater than 0.1%) or (2) an equivalent amount of DMSO alone. Culture medium is changed three times a week, and all of the remaining tracheas are harvested at the end of 10 days in culture. Tracheas are fixed in 10% buffered formalin and embedded in paraffin. Cross sections of five micrometers are made through the mid-portion, stained with hematoxylin and eosin, and then scored with a microscope for the presence of keratin and keratohyaline granules, both of which are found in approximately 90% of control cultures that receive no retinoid for the entire 10 day culture period.

Ornithine Decarboxylase = experiment: Inhibition of induction of ornithine decarboxylase (ODC) by 12-O-tetradecanoylphorbol-13-acetate in mouse skin; format: in vivo; conditions: topical, 1 hour before TPA (17 nmol)
Description: as §1
The ODC assay is carried out as follows. Female Charles River CD-1 mice from Charles River Breeding Laboratories, Wilmington, Mass., are used (age 7 to 9 weeks). The dorsal hair of the mice is shaved 1 to 2 days before testing, and only mice showing no hair regrowth are used. A single dose of 12-O-tetradecanoylphorbol-13-acetate (TPA) (10.5 μg, 17 nmol) in 0.2 mL of acetone is applied topically to the back of each mouse. The test compound, at one of three dose levels (1.7, 17, and 170 nmol), dissolved in 0.2 mL of acetone is applied 1 hour before the TPA treatment to the test groups; the control group is treated with acetone alone. The mice are killed by cervical dislocation five hours after TPA treatment. Determinations are done in triplicate.
The epidermis is obtained from the sacrificed animals. To obtain sufficient material, the dorsal skins from 2 to 3 mice in each treatment group are pooled. The depilatory agent Nudit® (Helena Rubinstein, New York) is applied to the shaved area of the skin; after 5 minutes, it is washed off thoroughly with cold tap water. Then the skin is excised and plunged immediately into ice-cold water; it is then placed in a 55° C. water bath for 30 seconds and reimmersed in ice-cold water for at least another 30 seconds. The skin is placed epidermis side up on a cold plate, and the epidermis is scraped off with a razor blade. The pooled epidermal sheets are homogenized (Polytron PT-10 homogenizer) at 0° to 4° C. for 15-20 seconds in 50 mM sodium phosphate buffer (pH 7.2) containing 0.1 mM pyridoxal phosphate and 0.1 mM ethylenediaminetetraacetic acid (EDTA), at a volume of 1 mL/skin.
The supernatant fraction remaining after centrifugation of the homogenate at 10,000×g for 30 seconds at 0° C. is used for the enzyme assay. Enzyme activity is determined using the microassay for ODC as described by Verma and Boutwell to measure the release of ^14 CO2 from DL-[1-^14 C]-ornithine (58 mCi/mmol) after incubation with the 10,000×g supernatant. The incubations are carried out by decanting, with a Pasteur pipette, 100 μL of the supernatant containing 100 to 120 μg of protein into two or three 15-mL Corex tubes in a shaking water bath at 37° C. The assay mixture in the tubes consists of 50 μL of 100 mM sodium phosphate buffer (pH 7.2), 10 μL of 4 mM pyridoxal phosphate, 40 μL of 25 mM dithiothreitol, and 1 μL of 0.1M EDTA. The center wells in the tubes are filled with 200 μL of a 2:1 solution (v/v) of ethanolamine:2-methoxyethanol. The reaction is started by adding 50 μL of substrate (0.5 μCi of DL-[1-^14 C]-ornithine in 2 mM cold ornithine) at 1-minute intervals by injection to each of the stoppered tubes. Incubations are routinely carried out at 37° C. for 30 to 60 minutes. The reaction is stopped by addition of 0.5 ml of 2M citric acid, and incubation is continued for an additional hour without heating to ensure complete absorption of ^14 CO2.
Radioactivity is measured using a toluene-based scintillant (4 g of PPO and 50 mg of POPOP/L of toluene) in a Beckman LS-250 liquid scintillation counter. Enzyme activity is determined in triplicate and expressed as nanomoles of CO2 released in 30 minutes per milligram of protein. Enzyme activity is linear for the protein concentration used. The protein concentrations of the epidermal extracts are determined by the Lowry procedure, using bovine serum albumin as the standard.

Structure (SMILES)	Reversal of Keratinization, Active/Total Cultures ([1]; Conc 10^-8 M)	Reversal of Keratinization, Active/Total Cultures (%) ([1]; Conc 10^-8 M)	Reversal of Keratinization, Active/Total Cultures ([1]; Conc 10^-9 M)	Reversal of Keratinization, Active/Total Cultures (%) ([1]; Conc 10^-9 M)	Reversal of Keratinization, Active/Total Cultures ([1]; Conc 10^-10 M)	Reversal of Keratinization, Active/Total Cultures (%) ([1]; Conc 10^-10 M)	Reversal of Keratinization, Active/Total Cultures ([1]; Conc 10^-11 M)	Reversal of Keratinization, Active/Total Cultures (%) ([1]; Conc 10^-11 M)	Inhibition of Induction of Ornithine Decarboxylase by TPA, % Inhibition of Control (Ornithine Decarboxylase; Dose 1.7 nmol)	Inhibition of Induction of Ornithine Decarboxylase by TPA, % Inhibition of Control (Ornithine Decarboxylase; Dose 17 nmol)
CC1=C(/C=C/C(C)=C/C=C/C(C)=C/C(=O)OCC(CO)(CO)CO)C(C)(C)CCC1 [Example 2, Pentaerythritol Monoretinoate]	13/13	100%	15/15	100%	18/25	72%	5/11	45%	35%	43%
CC1=C(/C=C/C(C)=C/C=C/C(C)=C/C(=O)OC[C@]2(CO)CO[C@@H](c3ccccc3)OC2)C(C)(C)CCC1 [Example 1 (Isomer (2)), (E)-2α-Phenyl-5α-hydroxymethyl-5β-retinoyloxymethyl-1,3-dioxane]	13/13	100%	17/18	94%	9/18	50%	2/6	33%	40%	49%
CC1=C(/C=C/C(C)=C/C=C/C(C)=C/C(=O)OC[C@]2(CO)CO[C@H](c3ccccc3)OC2)C(C)(C)CCC1 [Example 1 (Isomer (3)), (E)-2α-Phenyl-5β-hydroxymethyl-5α-retinoyloxymethyl-1,3-dioxane]	13/13	100%	18/18	100%	7/19	37%	2/6	33%	47%	57%
